Data taken from US7183267B2, “β-lactamase inhibitors and methods of use thereof” (priority 2003, dated 2007).
In brackets after ≈: the same amount, converted by molar mass.

Experiments:
Type in all cases: cell-based
[1] = test system: methicillin resistant S. aureus ATCC 33591 (MRSA-ATCC); assay: MIC assay, broth microdilution, MRSA-ATCC; conditions: Staphylococcus aureus, 24 h
Procedure, shortened: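 MRSA ATCC 33591 in Mueller-Hinton broth, inoculum about 5×10^5 CFU/ml; compounds tested as 8 two-fold doses 512–4 μg/ml (oxacillin 64–0.5 μg/ml) from DMSO dilutions, in duplicate. Incubated at least 24 h at 35° C; MIC is lowest dose with no visible growth.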

[2] = test system: methicillin resistant S. aureus from Stanford University Hospital (MRSA-SU); assay: MIC assay, broth microdilution, MRSA-SU; conditions: Staphylococcus aureus, MRSA, 24 h
Procedure, shortened: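 MRSA clinical isolate from Stanford University Hospital, tested in duplicate by NCCLS (2000) broth microdilution in Mueller-Hinton broth at 5×10^5 CFU/ml. Compounds were tested as two-fold dilutions at 512–4 μg/ml, with DMSO stocks, and incubated ≥24 h at 35 °C. MIC was the lowest dose with no visible growth.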

[3] = test system: methicillin resistant S. aureus from Stanford University Hospital (MRSA-SU); assay: Matrix system: oxacillin plus β-lactamase inhibitor, MRSA-SU
Experimental: To each well of a 96 well microtiter plate was added 47.5 μl of MHB. A volume of 2.5 μl of each dilution of oxacillin was then transferred to appropriate wells containing the medium. All wells, except the sterility control wells, were then inoculated with 50 μl of a diluted cell suspension to give a final volume of 100 μl and a final cell density of 5×10^4 CFU/well. The volume in the sterility control wells was adjusted to 100 μl with MHB. A sterile pipette tip was used to mix the contents of each well (one tip was used going from the low to the high concentration in the same column). The microtiter plates were covered with the lids and were placed in large Stratagene Big Blue plates (Cat. # 400041). Four large kimwipes moistened with tap water were placed near the edges of the Stratagene plates to prevent evaporation of the medium. The microtiter plates were incubated for at least 24 hours at 35° C. The plates were then evaluated for growth in each well. Controls included: medium sterility and negative control (medium and bacteria only).
A numerical code was used to evaluate the extent of growth as indicated below. • 0: absence of growth • 1: barely visible (faint) growth • 2: fair growth but less than the negative solvent control • 3: growth is equivalent to the negative solvent control.
The lowest dose at which no visible growth is observed was determined to be the MIC value.
The effect of the four compounds of the present invention on oxacillin resistance of the MRSA strains was determined using a matrix system. The β-lactamase inhibitors were tested at 5 doses against up to eleven concentrations of oxacillin. […] A 96-well microtiter plate was used for the matrix system. The procedure was identical to that described above for the MIC determination, with the exception that both oxacillin and one each of the β-lactamase inhibitors was added, 2.5 μl each, to the wells prior to addition of the test organisms.
Matrix Study:Oxacillin and Compound FL201 with MRSA-SU
Matrix Study: Oxacillin and Compound FL202 with MRSA-SU

[4] = test system: methicillin sensitive S. aureus ATCC 25923 (MSSA); assay: MIC assay, broth microdilution, MSSA; conditions: Staphylococcus aureus, 24 h
Procedure, shortened: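 Broth microdilution in Mueller-Hinton broth, duplicate, 5×10^5 CFU/ml inoculum; compounds tested at 512 to 4 μg/ml (eight twofold doses, DMSO dilutions). Incubated ≥24 h at 35 °C; growth scored visually 0–3, MIC taken as lowest dose without visible growth.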

In the case of `COC(=O)c1cc(B(O)O)cc([N+](=O)[O-])c1` [Compound F1202], the MIC [1] was 16 µg/mL (≈ 71.1 µM), the MIC [2] was 256 µg/mL and the “MIC (oxacillin)” value ([3]; Table 18, in presence of F1202 16 μg/ml) was 64 µg/mL. The “MIC (oxacillin)” value ([3]; Table 18, in presence of F1202 32 μg/ml) was 4 µg/mL, the “MIC (oxacillin)” value ([3]; Table 18, in presence of F1202 64 μg/ml) was 1 µg/mL and the “MIC (oxacillin)” value ([3]; Table 18, in presence of F1202 128 μg/ml) was 0.25 µg/mL. The growth score ([3]; Table 18, oxacillin 0, F1202 16 μg/ml) was 3, the growth score ([3]; Table 18, oxacillin 0, F1202 32 μg/ml) was 3 and the growth score ([3]; Table 18, oxacillin 0, F1202 64 μg/ml) was 3. The growth score ([3]; Table 18, oxacillin 0, F1202 128 μg/ml) was 1, the growth score ([3]; Table 18, oxacillin 0, F1202 256 μg/ml) was 0 and the growth score ([3]; Table 18, oxacillin 0.064 μg/ml + F1202 16 μg/ml) was 1. For the same compound, the growth score ([3]; Table 18, oxacillin 0.064 μg/ml + F1202 32 μg/ml) was 1, the growth score ([3]; Table 18, oxacillin 0.064 μg/ml + F1202 64 μg/ml) was 1 and the growth score ([3]; Table 18, oxacillin 0.064 μg/ml + F1202 128 μg/ml) was 1. It also gave a growth score ([3]; Table 18, oxacillin 0.064 μg/ml + F1202 256 μg/ml) of 0, a growth score ([3]; Table 18, oxacillin 0.125 μg/ml + F1202 16 μg/ml) of 1 and a growth score ([3]; Table 18, oxacillin 0.125 μg/ml + F1202 32 μg/ml) of 1. It also gave a growth score ([3]; Table 18, oxacillin 0.125 μg/ml + F1202 64 μg/ml) of 1, a growth score ([3]; Table 18, oxacillin 0.125 μg/ml + F1202 128 μg/ml) of 1 and a growth score ([3]; Table 18, oxacillin 0.125 μg/ml + F1202 256 μg/ml) of 0. It also gave a growth score ([3]; Table 18, oxacillin 0.25 μg/ml + F1202 16 μg/ml) of 1, a growth score ([3]; Table 18, oxacillin 0.25 μg/ml + F1202 32 μg/ml) of 1 and a growth score ([3]; Table 18, oxacillin 0.25 μg/ml + F1202 64 μg/ml) of 1. The growth score ([3]; Table 18, oxacillin 0.25 μg/ml + F1202 128 μg/ml) was 0, the growth score ([3]; Table 18, oxacillin 0.25 μg/ml + F1202 256 μg/ml) was 0 and the growth score ([3]; Table 18, oxacillin 0.5 μg/ml + F1202 16 μg/ml) was 1. The growth score ([3]; Table 18, oxacillin 0.5 μg/ml + F1202 32 μg/ml) was 1, the growth score ([3]; Table 18, oxacillin 0.5 μg/ml + F1202 64 μg/ml) was 1 and the growth score ([3]; Table 18, oxacillin 0.5 μg/ml + F1202 128 μg/ml) was 0. For the same compound, the growth score ([3]; Table 18, oxacillin 0.5 μg/ml + F1202 256 μg/ml) was 0, the growth score ([3]; Table 18, oxacillin 1 μg/ml + F1202 16 μg/ml) was 1 and the growth score ([3]; Table 18, oxacillin 1 μg/ml + F1202 32 μg/ml) was 1. For the same compound, the growth score ([3]; Table 18, oxacillin 1 μg/ml + F1202 64 μg/ml) was 0, the growth score ([3]; Table 18, oxacillin 1 μg/ml + F1202 128 μg/ml) was 0 and the growth score ([3]; Table 18, oxacillin 1 μg/ml + F1202 256 μg/ml) was 0. It also gave a growth score ([3]; Table 18, oxacillin 2 μg/ml + F1202 16 μg/ml) of 1, a growth score ([3]; Table 18, oxacillin 2 μg/ml + F1202 32 μg/ml) of 1 and a growth score ([3]; Table 18, oxacillin 2 μg/ml + F1202 64 μg/ml) of 0. The growth score ([3]; Table 18, oxacillin 2 μg/ml + F1202 128 μg/ml) was 0, the growth score ([3]; Table 18, oxacillin 2 μg/ml + F1202 256 μg/ml) was 0 and the growth score ([3]; Table 18, oxacillin 4 μg/ml + F1202 16 μg/ml) was 1. For the same compound, the growth score ([3]; Table 18, oxacillin 4 μg/ml + F1202 32 μg/ml) was 0, the growth score ([3]; Table 18, oxacillin 4 μg/ml + F1202 64 μg/ml) was 0 and the growth score ([3]; Table 18, oxacillin 4 μg/ml + F1202 128 μg/ml) was 0. The growth score ([3]; Table 18, oxacillin 4 μg/ml + F1202 256 μg/ml) was 0, the growth score ([3]; Table 18, oxacillin 16 μg/ml + F1202 16 μg/ml) was 1 and the growth score ([3]; Table 18, oxacillin 16 μg/ml + F1202 32 μg/ml) was 0. For the same compound, the growth score ([3]; Table 18, oxacillin 16 μg/ml + F1202 64 μg/ml) was 0, the growth score ([3]; Table 18, oxacillin 16 μg/ml + F1202 128 μg/ml) was 0 and the growth score ([3]; Table 18, oxacillin 16 μg/ml + F1202 256 μg/ml) was 0. It also gave a growth score ([3]; Table 18, oxacillin 64 μg/ml + F1202 16 μg/ml) of 0, a growth score ([3]; Table 18, oxacillin 64 μg/ml + F1202 32 μg/ml) of 0 and a growth score ([3]; Table 18, oxacillin 64 μg/ml + F1202 64 μg/ml) of 0. For the same compound, the growth score ([3]; Table 18, oxacillin 64 μg/ml + F1202 128 μg/ml) was 0, the growth score ([3]; Table 18, oxacillin 64 μg/ml + F1202 256 μg/ml) was 0 and the growth score ([3]; Table 18, oxacillin 128 μg/ml + F1202 16 μg/ml) was 0. For the same compound, the growth score ([3]; Table 18, oxacillin 128 μg/ml + F1202 32 μg/ml) was 0, the growth score ([3]; Table 18, oxacillin 128 μg/ml + F1202 64 μg/ml) was 0 and the growth score ([3]; Table 18, oxacillin 128 μg/ml + F1202 128 μg/ml) was 0. For the same compound, the growth score ([3]; Table 18, oxacillin 128 μg/ml + F1202 256 μg/ml) was 0, the growth score ([3]; Table 18, oxacillin 256 μg/ml + F1202 16 μg/ml) was 0 and the growth score ([3]; Table 18, oxacillin 256 μg/ml + F1202 32 μg/ml) was 0. The growth score ([3]; Table 18, oxacillin 256 μg/ml + F1202 64 μg/ml) was 0, the growth score ([3]; Table 18, oxacillin 256 μg/ml + F1202 128 μg/ml) was 0 and the growth score ([3]; Table 18, oxacillin 256 μg/ml + F1202 256 μg/ml) was 0. For the same compound, the MIC [4] was 128 µg/mL (≈ 569 µM).
